From PMC10269664, “Cinnamaldehyde Targets the LytTR DNA-Binding Domain of the Response Regulator AgrA to Attenuate Biofilm Formation of Listeria monocytogenes” (Microbiology Spectrum, 2023) come the findings set out here.

Where a chain is given by its changes, count along the chain named.

In data set [1] the target is T1, AgrCCyto (Listeria monocytogenes, UniProt Q8YAR5).
T1 construct: gene lmo0050
The note with it: 10 μM ATP; 37 °C.

Data set [2] has as its target T2, AgrCFL (Listeria monocytogenes, UniProt Q8YAR5).
T2 construct: gene lmo0050
The note with it: 10 μM ATP; 37 °C.

Data set [3] has as its target T3, AgrA (Listeria monocytogenes, UniProt Q8YAR4).
T3 construct: gene lmo0051; entire protein, 242 residues, pET-28a His-tag, E. coli BL21(DE3), fluorescently labelled for MST
As to the kind of experiment: microscale thermophoresis. The class given is binding. The note with it: read-out: Mean Kd ± SD. From the text:
microscale thermophoresis on AgrA
For orientation: MST reads how a fluorescent partner responds to local heating, with and without ligand.

Data set [4] has as its target T4, AgrA (Listeria monocytogenes, UniProt Q8YAR4, R179A).
T4 construct: gene lmo0051
As to the kind of experiment: biochemical.

For data set [5], the target named is T5, AgrA (Listeria monocytogenes, UniProt Q8YAR4, N178A).
T5 construct: gene lmo0051
Description: biochemical.

The target of data set [6] is T6, AgrA (Listeria monocytogenes, UniProt Q8YAR4, G176A).
T6 construct: gene lmo0051
Description: biochemical.

For data set [7], the target named is T7, AgrA (Listeria monocytogenes, UniProt Q8YAR4, H29A).
T7 construct: gene lmo0051
Description: biochemical.

Data set [8] deals with T8, AgrA (Listeria monocytogenes, UniProt Q8YAR4, D159A).
T8 construct: gene lmo0051
Description: biochemical.

The target of data set [9] is T9, AgrA (Listeria monocytogenes, UniProt Q8YAR4, K177A).
T9 construct: gene lmo0051
Description: biochemical.

In data set [10] the target is T10, AgrA (Listeria monocytogenes, UniProt Q8YAR4, D158A).
T10 construct: gene lmo0051
Description: biochemical.

The target of data set [11] is T11, AgrA N178A N178A (Listeria monocytogenes EGD-e) (UniProt Q8YAR4).
T11 sequence: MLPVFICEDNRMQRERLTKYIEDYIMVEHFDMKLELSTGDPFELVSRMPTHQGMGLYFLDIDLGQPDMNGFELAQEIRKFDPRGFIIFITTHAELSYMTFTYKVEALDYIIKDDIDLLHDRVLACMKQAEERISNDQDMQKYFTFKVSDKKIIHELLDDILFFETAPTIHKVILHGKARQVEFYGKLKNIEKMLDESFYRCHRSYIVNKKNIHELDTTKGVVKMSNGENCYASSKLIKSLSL
Description: EMSA. On the technique in general: In EMSA bound probe runs differently from free probe, usually more slowly.

Data set [12] addresses T12, AgrA (Listeria monocytogenes EGD-e) (UniProt Q8YAR4).
T12 sequence: T11 sequence with A178N
Description: EMSA.

T3 sequence (Q8YAR4 entry or part of it): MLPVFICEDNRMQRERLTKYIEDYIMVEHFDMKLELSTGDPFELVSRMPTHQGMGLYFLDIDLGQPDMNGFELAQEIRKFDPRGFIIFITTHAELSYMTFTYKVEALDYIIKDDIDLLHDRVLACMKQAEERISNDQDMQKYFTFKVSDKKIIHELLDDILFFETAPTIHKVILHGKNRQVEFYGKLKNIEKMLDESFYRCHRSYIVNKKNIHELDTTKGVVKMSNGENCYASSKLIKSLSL
T2 sequence (Q8YAR5 entry or part of it): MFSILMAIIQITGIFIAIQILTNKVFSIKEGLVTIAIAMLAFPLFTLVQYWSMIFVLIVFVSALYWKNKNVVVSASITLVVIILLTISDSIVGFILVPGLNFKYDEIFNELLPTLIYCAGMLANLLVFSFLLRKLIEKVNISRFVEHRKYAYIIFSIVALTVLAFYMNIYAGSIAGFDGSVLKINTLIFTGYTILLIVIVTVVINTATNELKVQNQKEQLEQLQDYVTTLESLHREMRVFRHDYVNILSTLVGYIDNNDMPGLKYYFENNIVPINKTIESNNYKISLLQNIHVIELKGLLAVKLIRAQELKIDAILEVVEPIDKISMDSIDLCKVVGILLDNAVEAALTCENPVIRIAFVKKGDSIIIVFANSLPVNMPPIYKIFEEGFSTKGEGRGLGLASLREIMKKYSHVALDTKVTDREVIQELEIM
T1 sequence (Q8YAR5 entry or part of it): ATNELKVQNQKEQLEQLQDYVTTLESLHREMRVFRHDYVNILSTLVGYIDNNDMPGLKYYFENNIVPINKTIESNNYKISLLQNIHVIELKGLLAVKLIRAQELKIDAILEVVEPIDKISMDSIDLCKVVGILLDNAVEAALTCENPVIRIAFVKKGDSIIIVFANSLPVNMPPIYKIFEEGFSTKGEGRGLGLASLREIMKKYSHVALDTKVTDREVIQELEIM

Turning to `Nc1ncnc2c1ncn2[C@@H]1O[C@H](COP(=O)(O)OP(=O)(O)OP(=O)(O)O)[C@@H](O)[C@H]1O` [ATP], the “Kinase-Lumi chemiluminescence, residual ATP” value in data set [1] is “After incubation, the remaining ATP was reduced with increasing concentrations of AgrCCyto”; in data set [2], “AgrCFL was also subjected to the kinase assay, and similar results were observed”.

What is called Kd is the constant that tells how readily two partners part at equilibrium. With `O=CC=Cc1ccccc1` [cinnamaldehyde], the Kd in data set [3] worked out at 55.9 ± 2.38 µM; in data set [4], 175 ± 17.8 µM; in data set [5], 138 ± 11.4 µM; in data set [6], 53.2 ± 1.52 µM; in data set [7], 57.7 ± 6.47 µM; in data set [8] it was 59 ± 3.44 µM. Also, the Kd in data set [9] worked out at 58.3 ± 4.42 µM; in data set [10], 62 ± 4.8 µM.

In the case of “CTAATTCACCTCCACTAATATTTTACAACGAATTTACCCATAATAACCAAAAATGTAATGAAATGTCCGATTCTTGTCATGAACGACCAAAAAAGAGCAGAATTGCCGATTTTTTGGATACATTTCAGAATATTCGAACGTGTAAAAAGGACTGTATAATAGGCTTAAAAACCCATATTAATATTTTATTTAAGTGAGTTTATTCATAAAAAAAACCAACTGCAAAAGAATGTTCACAGTTGGCTTTTCCATTTTA (double strand) [agr promoter P2]”, the values for the binding entry in data set [11] and in data set [12] were “binds more weakly” and “binds”, respectively.
